One assay addresses T1, human FIXa (Homo sapiens, UniProt P00740).
T1 construct: with (+) and without (−) addition of 50 ng human FIXaβ; purchased ERL (Enzyme Research Laboratories)
Put plainly: Chromogenic FVIII-like (FXa generation) assay with human FIXa added. The assay is classed as biochemical. The protocol: The chromogenic activity of these antibody preparations was measured in the following FXa generation kinetic assay: 10 μg of monoclonal antibody (in 25 μl) were transferred to microtiter plate wells and warmed to 37° C. Chromogenic substrate (S-2222), synthetic thrombin inhibitor (I-2581), factor IXa and FX were reconstituted in sterile water and FIXa/FX (both bovine) were mixed with phospholipids according to the supplier's protocol. Per reaction, 50 μl of the phospholipid/FIXa/FX solution were combined with 25 μl CaCl2 (25 mM) and 50 μl of the substrate/inhibitor cocktail. To start the reaction, 125 μl of the premix were added to the monoclonal antibody solution in the microtiter plates and incubated at 37° C. Absorbance at 405 nm and 490 nm of the samples was read at various times (5 min to 2 h) against a reagent blank ([…] TBS instead of monoclonal antibodies) in a Labsystems iEMS Reader MF™ microtiter plate reader using GENESIS™ software. In parallel, the same reactions were performed except that 50 ng human FIXa were added per reaction.
To analyze the FVIII-like (FIXa activating) activity of the peptides, an assay system based on a commercial available FVIII assay was developed (see examples 2 and 4). The basic principle is, that without a cofactor, FIXa will have very limited activity towards its natural substrate FX. […] The amount of FXa generated is monitored by cleavage of a chromogenic substrate. The principle of the revised chromogenic assay is described for two representative peptides: A1/3 and A1/5 (Table 2). Briefly, 25 μl aliquots of peptide stock solution (in imidazole buffer (IZ) 50 mM imidazole, 100 mM NaCl, pH 7.2) were transferred to microtiter plate wells and warmed to 37° C. Chromogenic FXa substrate (S-2222), synthetic thrombin inhibitor (I-2581), bovine FIXa and bovine FX were reconstituted in sterile water and FIXa/FX mixed with phospholipids according to the supplier's protocol. […] Per reaction, 50 μl of the phospholipid/FIXa/FX solution were combined with 25 μl CaCl2 (25 mM) and 50 μl of the substrate/inhibitor cocktail. To start the reaction, 125 μl of the premix were added to the peptide solution in the microtiter plate and incubated at 37° C. Absorbance at 405 nm and 490 nm of the samples was read at various times (5 min to 2 h) against a reagent blank in a Labsystems iEMS Reader MF™ microtiter plate reader using GENESIS™ software.

A further assay has as its system FVIII deficient plasma. In words: aPTT based one stage clotting assay in FVIII deficient plasma. The assay is classed as biochemical, human. The protocol: During normal hemostasis, FIX becomes initially activated either by the tissue factor (TF)/factor VIIa pathway or later on by activated factor XI (FXIa). Subsequent to its activation, FIXa associates on the platelet surface in a membrane bound complex with activated FVIII. […] Different amounts of antibody 193/AD3 or mouse IgG (as a control) were used in a standard aPTT based one stage clotting assay. Briefly, 100 μl of antibody-containing samples were incubated with 100 μl of FVIII deficient plasma (DP) and with 100 μl of DAPTTIN (PTT Reagent for determining activated Thromboplastin Time; IMMUNO AG) reagent, in a KC10A clotting analyzer. Where indicated, a total amount of 50 ng activated FIX was included in the reaction mixture. After a 4 minute incubation, the reaction was started by the addition of 100 μl CaCl2 (25 mM).
The peptides were also analyzed for their potential to reduce the clotting time in a FVIII deficient plasma. The aPTT based one stage clotting assay was essentially done as described (see example 6). Clotting times (time from starting the reaction to the “clot”-formation were compared either against FVIII, a buffer control (IZ) or a control peptide (scrambled version). The results of two typical clotting experiments done with two different aPTT reagents (DAPTTIN and Pathromtin SL) are shown in table 3A and table 3B.

[1] abbreviates: 12.5 nM peptide, (+) presence of activated human FIX.
[2] abbreviates: 12.5 nM peptide, (−) absence of activated human FIX.
[3] abbreviates: 0.125 μM peptide, (+) presence of activated human FIX.
Setting [4] is: 0.125 μM peptide, (−) absence of activated human FIX.
[5] abbreviates: 1.25 μM peptide, (+) presence of activated human FIX.
[6] abbreviates: 1.25 μM peptide, (−) absence of activated human FIX.
[7] abbreviates: 12.5 μM peptide, (+) presence of activated human FIX.
Where [8] appears, read: 12.5 μM peptide, (−) absence of activated human FIX.

Entries after “also recorded” stand apart in the source; their conditions may differ.

T1 sequence (P00740 47-191 limits assumed): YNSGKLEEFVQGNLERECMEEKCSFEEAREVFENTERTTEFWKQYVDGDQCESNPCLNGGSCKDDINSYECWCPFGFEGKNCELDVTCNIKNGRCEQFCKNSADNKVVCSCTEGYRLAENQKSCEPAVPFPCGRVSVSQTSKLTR
T1 sequence (P00740 227-461 limits assumed): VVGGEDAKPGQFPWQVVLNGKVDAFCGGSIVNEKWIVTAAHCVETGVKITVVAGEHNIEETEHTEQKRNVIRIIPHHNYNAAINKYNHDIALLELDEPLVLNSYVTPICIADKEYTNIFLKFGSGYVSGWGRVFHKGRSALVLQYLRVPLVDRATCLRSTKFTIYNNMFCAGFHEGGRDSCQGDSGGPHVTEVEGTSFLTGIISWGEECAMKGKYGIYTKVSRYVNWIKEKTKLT

Regarding EEEEGGGFTVNWYFDEEE [B1/6], the “FIXa activating activity in chromogenic assay” value at human FIXa (data not shown) was “no activity”. Moreover, the clotting time was 100 s with FVIII deficient plasma (setting [1]); 111 s with FVIII deficient plasma (setting [2]); 101 s with FVIII deficient plasma (setting [3]); 111 s in the assay on FVIII deficient plasma (setting [4]); 100 s in the assay on FVIII deficient plasma (setting [5]); 110 s in the assay on FVIII deficient plasma (setting [6]). Further, the values for the clotting time in the assay on FVIII deficient plasma (setting [7]) and in the assay with FVIII deficient plasma (setting [8]) were 103 s and 115 s, respectively.

For the sequence RRRGEYGVYWNGDFYRRR [A1/3-scr3], the “chromogenic FVIII-like activity (FXa generation)” value at human FIXa (2.9 nM human FIXa) is “did not give any significant chromogenic activity”. The average clotting time stood at 96 s in the assay on FVIII deficient plasma (Table 3A Exp. 1, DAPTTIN, 2.5 μM, 2.2 nM FIXa); 108 s in the assay with FVIII deficient plasma (Table 3A Exp. 1, DAPTTIN, 2.5 μM, w/o FIXa); 101 s in the assay on FVIII deficient plasma (Table 3A Exp. 1, DAPTTIN, 7.5 μM, 2.2 nM FIXa); 114 s with FVIII deficient plasma (Table 3A Exp. 1, DAPTTIN, 7.5 μM, w/o FIXa); 104 s in the assay on FVIII deficient plasma (Table 3A Exp. 1, DAPTTIN, 12.5 μM, 2.2 nM FIXa); 117 s with FVIII deficient plasma (Table 3A Exp. 1, DAPTTIN, 12.5 μM, w/o FIXa). Further, the average clotting time amounted to 106 s with FVIII deficient plasma (Table 3A Exp. 1, DAPTTIN, 15 μM, 2.2 nM FIXa) and 122 s with FVIII deficient plasma (Table 3A Exp. 1, DAPTTIN, 15 μM, w/o FIXa). The clotting time in the assay with FVIII deficient plasma (Table 3A Exp. 1, DAPTTIN, 2.5 μM, 2.2 nM FIXa, duplicate 1) was 96.3 s; with FVIII deficient plasma (Table 3A Exp. 1, DAPTTIN, 2.5 μM, 2.2 nM FIXa, duplicate 2) it was 95.2 s; in the assay with FVIII deficient plasma (Table 3A Exp. 1, DAPTTIN, 2.5 μM, w/o FIXa, duplicate 1) it was 107.8 s; in the assay with FVIII deficient plasma (Table 3A Exp. 1, DAPTTIN, 2.5 μM, w/o FIXa, duplicate 2) it was 107.4 s; in the assay on FVIII deficient plasma (Table 3A Exp. 1, DAPTTIN, 7.5 μM, 2.2 nM FIXa, duplicate 1) it was 100.8 s; in the assay with FVIII deficient plasma (Table 3A Exp. 1, DAPTTIN, 7.5 μM, 2.2 nM FIXa, duplicate 2), 100.6 s. The clotting time in the assay on FVIII deficient plasma (Table 3A Exp. 1, DAPTTIN, 7.5 μM, w/o FIXa, duplicate 1) was found to be 114.2 s; in the assay on FVIII deficient plasma (Table 3A Exp. 1, DAPTTIN, 7.5 μM, w/o FIXa, duplicate 2), 113.9 s; in the assay on FVIII deficient plasma (Table 3A Exp. 1, DAPTTIN, 12.5 μM, 2.2 nM FIXa, duplicate 1), 103.1 s; in the assay with FVIII deficient plasma (Table 3A Exp. 1, DAPTTIN, 12.5 μM, 2.2 nM FIXa, duplicate 2) it was 104.5 s; in the assay with FVIII deficient plasma (Table 3A Exp. 1, DAPTTIN, 12.5 μM, w/o FIXa, duplicate 1), 116 s; in the assay on FVIII deficient plasma (Table 3A Exp. 1, DAPTTIN, 12.5 μM, w/o FIXa, duplicate 2), 117.6 s. Besides, the clotting time in the assay on FVIII deficient plasma (Table 3A Exp. 1, DAPTTIN, 15 μM, 2.2 nM FIXa, duplicate 1) was 106.1 s; in the assay with FVIII deficient plasma (Table 3A Exp. 1, DAPTTIN, 15 μM, 2.2 nM FIXa, duplicate 2), 105.5 s; in the assay with FVIII deficient plasma (Table 3A Exp. 1, DAPTTIN, 15 μM, w/o FIXa, duplicate 1), 122.5 s; in the assay with FVIII deficient plasma (Table 3A Exp. 1, DAPTTIN, 15 μM, w/o FIXa, duplicate 2) it was 122 s.

Regarding RRREGGGFTVNWYFDRRR [B1/7], the “FIXa activating activity (generation of FXa)” value at human FIXa (2.4 μM peptide, 2.3 nM human FIXa) is “well measurable generation of FXa; also recorded: measureable generation of Fxa”. Moreover, on human FIXa (2.4 μM peptide, w/o FIXa/FX), the “FXa generation without FIXa and FX” value is “no FXa was synthesized; also recorded: no reaction is detectable”. For the same sequence, the clotting time was determined as 99 s with FVIII deficient plasma (setting [1]); 110 s in the assay on FVIII deficient plasma (setting [2]); 99 s in the assay on FVIII deficient plasma (setting [3]); 109 s in the assay with FVIII deficient plasma (setting [4]); 92 s in the assay with FVIII deficient plasma (setting [5]); 112 s in the assay with FVIII deficient plasma (setting [6]). Also, the results for the clotting time in the assay on FVIII deficient plasma (setting [7]) and in the assay with FVIII deficient plasma (setting [8]) were 83 s and 157 s, respectively.

In the case of RRREGGEYYVNWYFDRRR [A1/3-24], the “chromogenic FVIII-like activity at higher concentrations” value at human FIXa (up to 24 μM) is “lost activity”. The procoagulant activity result with FVIII deficient plasma (absence of human FIXa) was “no procoagulant activity”. The one-stage clotting activity entry with FVIII deficient plasma (in the presence of 2.2 nM human FIXa) is listed as “strongly active”.

The values above are taken from patent US7279161B2, “Factor IX/factor IXa activating antibodies and antibody derivatives” (Baxter Aktiengesellschaft, priority 1999, dated 2007).
